Measurements from US20060258644A1, “Pyrrolobenzodiazepines and heteroaryl, aryl and cycloalkylamino ketone derivatives as follicle stimulating hormone receptor (FSH-R) antagonists” (Wyeth, priority 2005, published 2006).
Where a name gives a salt, the structure may show the parent alone. Read-outs that look alike come from different tables or passages of the source.

How the values were obtained:
human FSH receptor = biological target: T1, human FSH receptor (Homo sapiens, UniProt P23945); assay: FSH receptor-dependent CRE-luciferase reporter gene assay (CHO FSH-R 6CRE-Luc cells); format: cell-based; details: for inhibition at 30 µM: test concentration in μM in parentheses (30 μM), % inhibition of the response to the EC50 of FSH
T1 construct: host or cells: CHO-K1 (CHO FSH-R 6CRE-Luc, 1D7 cells)
T1 sequence (P23945 18-695): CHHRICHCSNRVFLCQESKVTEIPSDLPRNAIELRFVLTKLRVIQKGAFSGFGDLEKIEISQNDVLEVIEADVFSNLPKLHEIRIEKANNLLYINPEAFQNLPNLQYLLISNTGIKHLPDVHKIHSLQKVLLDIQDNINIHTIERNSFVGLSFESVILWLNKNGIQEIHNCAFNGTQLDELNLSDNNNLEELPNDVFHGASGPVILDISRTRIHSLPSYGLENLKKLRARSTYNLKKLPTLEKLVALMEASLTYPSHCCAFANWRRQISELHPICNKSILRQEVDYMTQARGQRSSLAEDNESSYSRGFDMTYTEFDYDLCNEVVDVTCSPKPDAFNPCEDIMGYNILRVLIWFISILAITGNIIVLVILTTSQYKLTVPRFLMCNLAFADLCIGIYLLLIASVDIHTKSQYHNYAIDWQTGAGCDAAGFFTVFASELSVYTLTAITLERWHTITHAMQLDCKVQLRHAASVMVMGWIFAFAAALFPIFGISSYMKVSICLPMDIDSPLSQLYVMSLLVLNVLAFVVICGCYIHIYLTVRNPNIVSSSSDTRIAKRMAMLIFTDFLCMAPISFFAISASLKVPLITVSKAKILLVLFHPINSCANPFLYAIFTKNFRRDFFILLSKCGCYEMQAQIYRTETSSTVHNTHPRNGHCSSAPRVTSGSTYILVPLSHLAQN
Source text: Follicle-Stimulating Hormone Receptor-Dependent CRE-Luciferase Reporter Gene Assay for the Identification of Follicle-Stimulating Hormone (FSH) Antagonists
This procedure was used to identify and determine the relative potencies of human FSH receptor antagonists using a Chinese hamster ovarian cell line that stably produces the human FSH receptor and a luciferase reporter gene regulated by cAMP response elements.
The compounds were subsequently diluted in DMSO to working dilutions of 1 and 20 or 30 mM for 2-dose testing format and 1 μM-10 mM for dose-response format. The DMSO dilutions were diluted 500-fold in sterile growth medium [D-MEM/F-12 (GIBCO/BRL; Grand Island N.Y.) containing 15 mM HEPES, 2 mM 1-glutamine, pyridoxine hydrochloride, phenol red and 5% FetalClone II (HyClone Laboratories, Inc; Logan, Utah), 0.2% DMSO, 100 units penicillin G/ml, and 100 μg streptomycin sulfate/ml (GIBCO/BRL)]. The concentration of the vehicle in each of the compound dilutions was the same. • Positive Controls: Purified human FSH (>98%) was purchased from Cortex Biochem, Inc. (San Leandro, Calif.) and WAY-162002 (an FSH-R thiazolidinone antagonist) was obtained from the Wyeth Research compound repository. Preparation of Cells
The CHO FSH-R 6CRE-Luc cells (1D7 cells) were obtained from Affymax (Palo Alto, Calif.). These Chinese hamster ovary cells (CHO—K1) were genetically engineered to stably express the recombinant human FSH receptor gene and a luciferase reporter gene under the regulation of 6 copies of a cAMP response element. The cells were plated one day prior to treatment into 96-well white opaque plates at a density of 50,000 cells/100 μl/well in growth medium. On the day of treatment, the growth medium was removed from the wells by aspiration and 50 μl of fresh growth medium was added to each well. The cells were incubated at 37° C. in a humidified incubator with 5% CO2/95% air.
The treated cells were incubated for 4 hours at 37° C. in a humidified incubator with 5% CO2/95% air. At the end of-the incubation period, luciferase activity was measured by chemiluminescence using a commercially available kit (LucScreen, Tropix, Inc., Bedford, Mass.) according to the manufacturer's specifications, except that Buffer 1 and Buffer 2 were mixed together in equal proportion prior to the addition of 100 μl of the combined reagents to each well. Chemiluminescence was detected using a luminometer (EG & G Berthold Microlumat LB 96 P, Wallac, Gaithersburg, Md.) with chemiluminescence measured for 1 sec/well. Background luminescence was measured for each well prior to the addition of the LucScreen reagent.
In the 96-well 2-dose format, each compound was tested in duplicate at each dose. […] One plate was used to test a maximum of 22 compounds.
The EC50 of purified human FSH alone was tested in triplicate with each test compound. The doses chosen to test each compound were extrapolated from the initial 2-dose screening process. Along with the test compounds, purified human FSH was also tested in a dose response (0.03, 0.1, 0.3, 1, 3, 10, and 30 ng/ml) for a positive control and quality control. One plate was used for 3 test compounds and the FSH positive control.
Luciferase activity is expressed as relative light units/sec/well. Luciferase activity in antagonist was compared to the appropriate negative and positive controls. For 2-dose testing, results are reported as luciferase activity and are expressed as % inhibition of the response obtained from the EC50 of FSH. For dose-response testing, results are reported as IC50 values. Data were analyzed statistically by one-way analysis of variance with appropriate weighting and transformation and relevant paired test as determined by Biometrics (Wyeth Research, Princeton, N.J.). IC50 values were calculated using the Stat/Excel program developed by Biometrics with appropriate weighting and transformation.

[1] = dose-response in presence of EC50 of purified human FSH, read-out: CRE IC50

SMILES | inhibition at 30 µM (human FSH receptor) | melting point | IC50 (human FSH receptor; [1]) | IC50 (human FSH receptor; positive control, in the presence of EC50 of purified human FSH, read-out: IC50 in CRE-luciferase assay)
Cc1cc(Cl)ccc1OCC(=O)N1Cc2ccc(C(=O)c3ccc(Cl)cc3)n2Cc2ccccc21 [Example 4, {10-[(4-Chloro-2-methylphenoxy)acetyl]-10,11-dihydro-5H-pyrrolo[2,1-c][1,4]benzodiazepin-3-yl}(4-chlorophenyl)methanone] | 22% | 175 to 176 °C |  | 
O=C(c1ccc(Cl)cc1)c1ccc2n1Cc1ccccc1N(C(=O)COc1ccc(Cl)cc1)C2 [Example 10, {10-[(4-Chlorophenoxy)acetyl]-10,11-dihydro-5H-pyrrolo[2,1-c][1,4]benzodiazepin-3-yl}(4-chlorophenyl)methanone] |  | 195 °C | > 30 µM | 
O=C(c1ccc(-c2ccccc2)cc1)c1ccc2n1Cc1ccccc1N(C(=O)COc1ccc(Cl)cc1)C2 [Example 13, 1,1′-Biphenyl-4-yl{10-[(4-chlorophenoxy)acetyl]-10,11-dihydro-5H-pyrrolo[2,1-c][1,4]benzodiazepin-3-yl}methanone] | 14% | 155 to 157 °C |  | 
Cc1cc(Cl)ccc1OCC(=O)N1Cc2ccc(C(=O)c3cccc4ccccc34)n2Cc2ccccc21 [Example 6, {10-[(4-Chloro-2-methylphenoxy)acetyl]-10,11-dihydro-5H-pyrrolo[2,1-c][1,4]benzodiazepin-3-yl}(1-naphthyl)methanone] |  | 130 to 134 °C | > 30 µM | 
Cc1cc(Cl)ccc1OCC(=O)N1Cc2ccc(C(=O)CCc3ccccc3)n2Cc2ccccc21 [Example 5, 1-{10-[(4-Chloro-2-methylphenoxy)acetyl]-10,11-dihydro-5H-pyrrolo[2,1-c][1,4]benzodiazepin-3-yl}-3-phenylpropan-1-one] |  | 130 to 134 °C | > 30 µM | 
Cc1ccccc1-c1ccc(C(=O)N2Cc3ccc(C(=O)CCc4cccnc4)n3Cc3ccccc32)cc1 [Example 15, 1-{10-[(2′-Methyl-1,1′-biphenyl-4-yl)carbonyl]-10,11-dihydro-5H-pyrrolo[2,1-c][1,4]benzodiazepin-3-yl}-3-pyridin-3-ylpropan-1-one] |  | 135 to 136 °C | 12.1 µM | 
Cc1cc(Cl)ccc1OCC(=O)N1Cc2ccc(C(=O)c3ccccc3-c3ccccc3)n2Cc2ccccc21 [Example 9, 1,1′-Biphenyl-2-yl{10-[(4-chloro-2-methylphenoxy)acetyl]-10,11-dihydro-5H-pyrrolo[2,1-c][1,4]benzodiazepin-3-yl}methanone] |  |  | > 30 µM | 
Cc1cc(Cl)ccc1OCC(=O)N1Cc2ccc(C(=O)c3ccc(-c4ccccc4)cc3)n2Cc2ccccc21 [Example 7, 1,1′-Biphenyl-4-yl{10-[(4-chloro-2-methylphenoxy)acetyl]-10,11-dihydro-5H-pyrrolo[2,1-c][1,4]benzodiazepin-3-yl}methanone] |  | 102 to 105 °C | > 30 µM | 
Cc1cc(Cl)ccc1OCC(=O)N1Cc2ccc(C(=O)c3ccc(C(C)(C)C)cc3)n2Cc2ccccc21 [Example 8, (4-Tert-butylphenyl){10-[(4-chloro-2-methylphenoxy)acetyl]-10,11-dihydro-5H-pyrrolo[2,1-c][1,4]benzodiazepin-3-yl}methanone] |  | 168 °C | > 30 µM | 
Cc1ccccc1-c1ccc(C(=O)N2Cc3ccc(C(=O)CNc4cccnc4)n3Cc3ccccc32)cc1C [Example 1, 1-{10-[(2,2′-Dimethyl-1,1′-biphenyl-4-yl)carbonyl]-10,11-dihydro-5H-pyrrolo[2,1-c][1,4]benzodiazepin-3-yl}-2-(pyridin-3-ylamino)ethanone formic acid salt] | 4% |  |  | 
O=C(CCc1ccccc1)c1ccc2n1Cc1ccccc1N(C(=O)COc1ccc(Cl)cc1)C2 [Example 11, 1-{10-[(4-Chlorophenoxy)acetyl]-10,11-dihydro-5H-pyrrolo[2,1-c][1,4]benzodiazepin-3-yl}-3-phenylpropan-1-one] | 8% | 126 to 128 °C |  | 
CC(C)(C)c1ccc(C(=O)c2ccc3n2Cc2ccccc2N(C(=O)COc2ccc(Cl)cc2)C3)cc1 [Example 12, (4-tert-Butylphenyl){10-[(4-chlorophenoxy)acetyl]-10,11-dihydro-5H-pyrrolo[2,1-c][1,4]benzodiazepin-3-yl}methanone] |  | 171 °C | > 30 µM | 
O=C(CCc1cccnc1)c1ccc2n1Cc1ccccc1N(C(=O)c1ccc(-c3ccccc3)cc1)C2 [Example 2, 1-[10-(1,1′-Biphenyl-4-ylcarbonyl)-10,11-dihydro-5H-pyrrolo[2,1-c][1,4]benzodiazepin-3-yl]-3-pyridin-3-ylpropan-1-one formic acid salt] |  |  | 10.7 µM | 
O=C(c1ccccc1-c1ccccc1)c1ccc2n1Cc1ccccc1N(C(=O)COc1ccc(Cl)cc1)C2 [Example 14, 1,1′-Biphenyl-2-yl{10-[(4-chlorophenoxy)acetyl]-10,11-dihydro-5H-pyrrolo[2,1-c][1,4]benzodiazepin-3-yl}methanone] |  |  | > 30 µM | 
NC(=O)c1cccc(N2C(=O)[C@@H](CC(=O)NCCc3c[nH]c4ccccc34)S[C@H]2c2ccc(C#Cc3ccccc3)s2)c1 (relative stereo) [3-[(2S*,5R*)-5-{[2-(1H-Indol-3-yl)-ethylcarbamoyl]-methyl}-4-oxo-2-(5-phenylethynyl-thiophen-2-yl)-thiazolidin-3-yl]-benzamide, reference compound] |  |  |  | 2 µM
